# Results as given in ChEMBL document CHEMBL1201862, “PubChem BioAssay data set” (2004).
# Active and inactive are the calls of the source.
# What was measured:
# Leucine aminopeptidase = target: T1, Leucine aminopeptidase (Plasmodium falciparum 3D7, UniProt Q8IL11); test: P. falciparum M17LAP inhibitors, primary screen, biochemical, fluorogenic H-Leu-NHMec substrate, 1536-well (AID 1619); format: functional
# T1 sequence (Q8IL11 whole entry): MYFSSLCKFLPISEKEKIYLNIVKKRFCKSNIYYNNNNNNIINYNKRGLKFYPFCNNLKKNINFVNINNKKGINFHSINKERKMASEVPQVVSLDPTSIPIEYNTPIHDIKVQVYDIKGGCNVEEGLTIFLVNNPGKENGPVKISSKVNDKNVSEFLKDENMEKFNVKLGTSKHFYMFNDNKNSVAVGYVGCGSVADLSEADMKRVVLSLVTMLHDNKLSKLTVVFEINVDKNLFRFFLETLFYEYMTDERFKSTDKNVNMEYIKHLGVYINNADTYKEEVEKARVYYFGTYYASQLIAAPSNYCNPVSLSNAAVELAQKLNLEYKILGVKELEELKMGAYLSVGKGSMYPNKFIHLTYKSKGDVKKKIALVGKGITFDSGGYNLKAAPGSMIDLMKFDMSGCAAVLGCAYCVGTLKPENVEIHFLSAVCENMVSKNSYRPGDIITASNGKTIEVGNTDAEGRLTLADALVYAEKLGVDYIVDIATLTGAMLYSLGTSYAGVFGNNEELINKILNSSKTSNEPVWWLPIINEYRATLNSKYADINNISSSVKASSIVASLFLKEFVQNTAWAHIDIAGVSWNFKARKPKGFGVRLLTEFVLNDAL
# [1] = target: T2, Carboxy-terminal domain RNA polymerase II polypeptide A small phosphatase 1 (Homo sapiens, UniProt Q9GZU7); test: CTDSP1 inhibitors, concentration-response, biochemical, absorbance readout, ultra-high-throughput screen actives (AID 540297); format: functional
# T2 sequence (Q9GZU7 whole entry): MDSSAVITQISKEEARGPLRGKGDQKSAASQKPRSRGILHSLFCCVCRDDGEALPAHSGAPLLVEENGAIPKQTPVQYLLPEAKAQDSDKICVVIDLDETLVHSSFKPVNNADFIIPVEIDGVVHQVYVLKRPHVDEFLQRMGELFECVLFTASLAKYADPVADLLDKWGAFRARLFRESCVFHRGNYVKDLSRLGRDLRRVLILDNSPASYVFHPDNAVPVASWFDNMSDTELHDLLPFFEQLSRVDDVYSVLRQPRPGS
# [2] = target: FAD-linked sulfhydryl oxidase ALR (Homo sapiens, UniProt P55789); test: ALR-catalysed DTT oxidation blockers – biochemical, H2O2 detection, luminescence, cherry-pick, dose response (AID 493248)
# FAD-linked sulfhydryl oxidase ALR, sequence (P55789 whole entry): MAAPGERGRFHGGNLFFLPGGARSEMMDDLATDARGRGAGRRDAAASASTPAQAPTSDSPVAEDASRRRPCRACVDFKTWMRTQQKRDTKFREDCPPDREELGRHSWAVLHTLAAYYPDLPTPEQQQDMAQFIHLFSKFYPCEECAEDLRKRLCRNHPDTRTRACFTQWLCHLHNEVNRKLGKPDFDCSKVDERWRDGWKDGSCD
# Prothrombin = Prothrombin (Homo sapiens, UniProt P00734); test: Thrombin 1536 HTS Dose Response Confirmation. [Related pubchem assays: 1046 (Thrombin 1536 HTS; hits were confirmed in this assay)]; format: functional
# Cytochrome P450 2C19 = Cytochrome P450 2C19 (Homo sapiens, UniProt P33261); test: Cytochrome panel assay with activity outcomes. Panel member name: p450-cyp2c19 Compounds with AC50 equal or less than 10 uM are considered active; format: functional; details: read-out: AC50
# Cytochrome P450 2C19, sequence (P33261 whole entry): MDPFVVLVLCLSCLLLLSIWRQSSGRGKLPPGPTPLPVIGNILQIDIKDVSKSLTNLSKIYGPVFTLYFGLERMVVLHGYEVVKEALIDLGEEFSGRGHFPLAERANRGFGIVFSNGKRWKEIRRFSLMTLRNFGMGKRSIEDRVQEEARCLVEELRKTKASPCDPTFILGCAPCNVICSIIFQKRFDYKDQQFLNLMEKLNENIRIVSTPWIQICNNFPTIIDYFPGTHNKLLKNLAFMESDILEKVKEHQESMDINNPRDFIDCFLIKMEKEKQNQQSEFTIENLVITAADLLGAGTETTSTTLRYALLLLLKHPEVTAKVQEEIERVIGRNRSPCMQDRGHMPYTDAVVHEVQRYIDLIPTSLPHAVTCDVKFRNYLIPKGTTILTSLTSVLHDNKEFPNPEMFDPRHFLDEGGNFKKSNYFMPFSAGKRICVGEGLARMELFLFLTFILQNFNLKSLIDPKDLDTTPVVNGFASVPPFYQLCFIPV
# [3] = target: T3, Short transient receptor potential channel 4 (Mus musculus, UniProt Q9QUQ5); test: calcium entry via TRPC4 opening agents – cell-based, HEK293 TRPC4/mu-opioid, Fluo-4 calcium, dose response (AID 434937); format: functional
# T3 sequence (Q9QUQ5 whole entry): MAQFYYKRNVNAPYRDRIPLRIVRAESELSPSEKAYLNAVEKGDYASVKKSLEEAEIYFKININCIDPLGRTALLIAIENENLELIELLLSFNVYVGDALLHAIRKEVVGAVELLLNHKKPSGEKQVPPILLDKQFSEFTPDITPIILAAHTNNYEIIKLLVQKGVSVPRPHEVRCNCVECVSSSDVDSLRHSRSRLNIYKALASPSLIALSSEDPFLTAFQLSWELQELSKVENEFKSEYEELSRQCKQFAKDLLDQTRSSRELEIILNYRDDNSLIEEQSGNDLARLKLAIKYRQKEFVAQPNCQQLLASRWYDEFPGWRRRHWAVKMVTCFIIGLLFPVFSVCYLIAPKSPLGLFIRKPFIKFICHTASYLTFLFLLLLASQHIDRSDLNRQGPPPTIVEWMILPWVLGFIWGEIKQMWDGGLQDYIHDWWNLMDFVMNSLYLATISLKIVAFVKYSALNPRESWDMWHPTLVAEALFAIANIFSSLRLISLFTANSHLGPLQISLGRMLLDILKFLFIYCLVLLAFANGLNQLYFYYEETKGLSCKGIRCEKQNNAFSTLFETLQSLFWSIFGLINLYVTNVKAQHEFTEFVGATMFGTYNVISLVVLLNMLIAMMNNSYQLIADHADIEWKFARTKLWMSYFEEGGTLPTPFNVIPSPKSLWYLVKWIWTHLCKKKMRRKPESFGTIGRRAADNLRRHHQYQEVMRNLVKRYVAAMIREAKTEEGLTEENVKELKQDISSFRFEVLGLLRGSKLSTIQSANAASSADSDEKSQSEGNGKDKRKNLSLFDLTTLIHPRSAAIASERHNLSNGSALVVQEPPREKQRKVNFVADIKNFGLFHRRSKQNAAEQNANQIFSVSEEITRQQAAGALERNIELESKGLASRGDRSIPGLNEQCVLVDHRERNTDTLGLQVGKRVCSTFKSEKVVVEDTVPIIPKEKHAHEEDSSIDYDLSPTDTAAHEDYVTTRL
# [4] = NIH3T3 cell viability loss – ATP luminescence, mouse fibroblasts, counter-screen, dose response (AID 2010); format: functional, cell-based;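 further: cells exposed to compound for about 90 hours before reading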
# [5] = Trypanosoma cruzi growth suppression in host cells – NIH3T3 host cells, beta-gal luminescence, confirmation (AID 2044); format: functional, cell-based;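 further: intracellular parasites grown in NIH/3T3 mouse fibroblasts as host cells; luminescent beta-galactosidase reporter signal from transgenic T. cruzi replicating inside host cells; inhibitors lower the luminescence signal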
# [6] = target: T3, Short transient receptor potential channel 4; test: block of DAMGO-driven TRPC4 calcium entry – cell-based, HEK293 TRPC4/mu-opioid, Fluo-4 calcium, dose response (AID 434942); format: functional;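 further: potency of inhibitors blocking the TRPC4 calcium response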
# Nonstructural protein 1 = Nonstructural protein 1 (Influenza A virus, UniProt Q194T2); format: functional, Influenza A virus (A/California/07/2009(H1N1))
# Nonstructural protein 1, sequence (Q194T2 whole entry): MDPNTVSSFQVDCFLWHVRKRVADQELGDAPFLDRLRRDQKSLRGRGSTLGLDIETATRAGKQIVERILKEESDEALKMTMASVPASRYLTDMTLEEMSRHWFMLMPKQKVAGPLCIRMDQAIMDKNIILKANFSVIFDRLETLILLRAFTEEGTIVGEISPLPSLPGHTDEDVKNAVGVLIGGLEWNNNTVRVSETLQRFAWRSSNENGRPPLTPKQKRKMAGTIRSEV
# [7] = target: Heat shock protein HSP 90-alpha (Homo sapiens, UniProt P07900); format: functional, organism-based
# [8] = loss of viability in HepG2 cells – cell-based, CellTiter-Glo, cherry-picked, cytotoxicity control for Shn3 inhibitor project, dose response (AID 624134); format: functional
# [9] = reduction of Shn3 3'UTR-driven luciferase in osteoblasts – cell-based, Clone20 osteoblasts, firefly luciferase, cherry-picked, dose response (AID 624132); format: functional;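 further: firefly luciferase luminescence from reporter carrying the Shn3 3'UTR in osteoblasts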
# [10] = OVCAR-3 cell viability loss – plate reader, dry powder samples, PAX8 inhibitor project, dose response (AID 743044); format: functional, cell-based
# [11] = OVCAR8 cell viability loss – plate reader, dry powder samples, PAX8 project, dose response (AID 743197); format: functional, cell-based; details: OVCAR-8
# Paired box protein Pax-8 = Paired box protein Pax-8 (Homo sapiens, UniProt Q06710); test: PAX8 transcriptional activity inhibition in RMG-I – RMG-I cells, luciferase, cherry-pick, dose response (AID 687027); format: functional, cell-based;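 further: luciferase reporter driven by Pax8 target thyroperoxidase promoter measured by SteadyGlo luminescence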
# Paired box protein Pax-8, sequence (Q06710 whole entry): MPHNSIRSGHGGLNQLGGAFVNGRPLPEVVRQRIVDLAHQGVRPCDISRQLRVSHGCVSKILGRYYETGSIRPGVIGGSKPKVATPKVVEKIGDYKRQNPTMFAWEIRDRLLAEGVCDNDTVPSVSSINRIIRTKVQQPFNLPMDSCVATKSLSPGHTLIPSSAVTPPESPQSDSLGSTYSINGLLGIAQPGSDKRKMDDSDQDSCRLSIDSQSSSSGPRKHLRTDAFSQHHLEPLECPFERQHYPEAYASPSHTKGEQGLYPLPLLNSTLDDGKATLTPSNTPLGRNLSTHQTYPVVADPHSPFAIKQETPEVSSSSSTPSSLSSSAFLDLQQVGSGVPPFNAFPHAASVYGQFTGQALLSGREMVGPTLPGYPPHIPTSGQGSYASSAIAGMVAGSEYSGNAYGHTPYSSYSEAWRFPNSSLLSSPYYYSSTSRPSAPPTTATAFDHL
# Genome polyprotein = Genome polyprotein (dengue virus type 2, UniProt P29990); test: flavivirus cap methylation enzyme inhibition – biochemical, confirmation dose response, primary screen (AID 588689); format: functional
# Genome polyprotein, sequence (P29990 2492-3391 limits assumed): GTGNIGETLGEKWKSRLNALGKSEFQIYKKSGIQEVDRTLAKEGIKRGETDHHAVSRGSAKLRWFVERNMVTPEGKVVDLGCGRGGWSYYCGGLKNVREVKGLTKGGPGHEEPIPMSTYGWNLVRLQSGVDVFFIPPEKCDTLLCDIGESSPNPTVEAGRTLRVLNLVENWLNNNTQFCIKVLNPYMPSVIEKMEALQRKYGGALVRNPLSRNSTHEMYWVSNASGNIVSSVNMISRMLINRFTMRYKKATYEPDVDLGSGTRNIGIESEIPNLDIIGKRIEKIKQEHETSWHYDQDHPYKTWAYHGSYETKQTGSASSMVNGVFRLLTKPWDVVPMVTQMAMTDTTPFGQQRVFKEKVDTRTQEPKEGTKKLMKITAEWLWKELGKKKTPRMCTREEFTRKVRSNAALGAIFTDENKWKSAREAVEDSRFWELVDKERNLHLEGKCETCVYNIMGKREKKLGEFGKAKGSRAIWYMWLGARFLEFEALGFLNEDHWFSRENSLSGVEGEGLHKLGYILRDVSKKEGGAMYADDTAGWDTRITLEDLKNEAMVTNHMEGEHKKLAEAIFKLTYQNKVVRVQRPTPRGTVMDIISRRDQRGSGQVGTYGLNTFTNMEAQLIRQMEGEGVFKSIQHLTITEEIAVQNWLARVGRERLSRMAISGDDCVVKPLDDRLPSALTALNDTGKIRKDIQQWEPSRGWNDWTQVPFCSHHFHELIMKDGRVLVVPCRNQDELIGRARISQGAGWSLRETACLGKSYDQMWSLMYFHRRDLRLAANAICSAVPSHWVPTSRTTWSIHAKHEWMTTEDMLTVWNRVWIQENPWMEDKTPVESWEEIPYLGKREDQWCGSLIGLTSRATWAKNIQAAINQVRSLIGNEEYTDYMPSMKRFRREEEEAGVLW
# [12] = target: Eukaryotic translation initiation factor 4E (Mus musculus, UniProt P63073); test: blockers of eIF4G binding by eIF4E – biochemical, TR-FRET, dose response (AID 855); format: functional;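 further: potency for disrupting eIF4E binding to eIF4GI seen as loss of FRET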
# Eukaryotic translation initiation factor 4E, sequence (P63073 whole entry): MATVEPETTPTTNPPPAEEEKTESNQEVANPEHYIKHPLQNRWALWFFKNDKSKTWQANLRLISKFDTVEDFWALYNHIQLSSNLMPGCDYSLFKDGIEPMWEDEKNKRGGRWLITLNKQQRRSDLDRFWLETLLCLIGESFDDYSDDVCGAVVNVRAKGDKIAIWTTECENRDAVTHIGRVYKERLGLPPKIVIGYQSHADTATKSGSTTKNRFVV
# Large T antigen = Large T antigen (Simian virus 40, UniProt P03070); format: functional, Betapolyomavirus macacae;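 further: Confirmatory-stage PubChem screen for compounds that inhibit SV40 T antigen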
# Large T antigen, sequence (P03070 whole entry): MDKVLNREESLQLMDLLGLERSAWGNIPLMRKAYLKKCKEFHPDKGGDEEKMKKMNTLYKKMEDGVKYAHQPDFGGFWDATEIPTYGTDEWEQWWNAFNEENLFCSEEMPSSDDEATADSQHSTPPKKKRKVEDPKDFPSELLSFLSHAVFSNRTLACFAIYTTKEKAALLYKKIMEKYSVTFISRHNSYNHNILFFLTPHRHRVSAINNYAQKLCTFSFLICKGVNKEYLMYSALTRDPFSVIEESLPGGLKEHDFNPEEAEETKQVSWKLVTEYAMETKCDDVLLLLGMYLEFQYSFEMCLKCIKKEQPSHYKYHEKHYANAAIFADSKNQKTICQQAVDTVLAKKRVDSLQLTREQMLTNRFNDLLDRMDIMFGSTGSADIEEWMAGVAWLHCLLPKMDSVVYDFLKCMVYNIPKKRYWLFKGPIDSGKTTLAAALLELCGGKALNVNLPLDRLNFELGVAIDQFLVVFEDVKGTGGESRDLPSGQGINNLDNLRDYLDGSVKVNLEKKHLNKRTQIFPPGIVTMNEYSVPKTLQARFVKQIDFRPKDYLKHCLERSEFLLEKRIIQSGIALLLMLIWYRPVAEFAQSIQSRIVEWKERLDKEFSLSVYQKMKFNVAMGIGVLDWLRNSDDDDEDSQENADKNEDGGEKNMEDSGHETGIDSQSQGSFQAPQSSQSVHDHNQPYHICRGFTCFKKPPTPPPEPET
# [13] = P. falciparum Dd2 growth inhibitors, dose response, SYBR Green, cherry-picked samples (AID 1159567); format: functional, cell-based
# [14] = Dd2 malaria parasite growth inhibition potency – SYBR Green, dry powder samples, dose response (AID 1159566); format: functional, cell-based;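 further: potency for growth inhibition with lower SYBR green DNA signal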
# [15] = growth inhibition of yeast DHODH-expressing 3D7 parasites – SYBR Green, dry powder samples, dose response (AID 1159570); format: functional, cell-based;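 further: parasite growth measured after 72 hours of compound exposure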
# [16] = growth inhibition of PfATP4-mutant resistant parasites – NITD609-resistant line, SYBR Green, dry powder, dose response (AID 1159571); format: functional, cell-based;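 further: parasites synchronized at ring stage by sorbitol before testing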
smiles,measurement,setting,value
O=C(CSc1nc[nH]n1)Nc1ccc(S(=O)(=O)N2CCCC2)cc1,IC50,Leucine aminopeptidase,82.5 µM (active)
CC(C)N1C(=O)CC2(CC[N+](C)(CCOC(=O)C(O)(c3ccccc3)c3ccccc3)CC2)C1=O (stereo not drawn),IC50,[1],6.22 µM (active)
O=C1CC(N2CCc3ccccc32)C(=O)N1c1ccccc1 (stereo not drawn),AC50,[2],677 nM (active)
O=C(c1cccs1)n1nc(-c2cccnc2)nc1NCc1ccco1,IC50,Prothrombin,711 nM (active)
Cc1cc2ncn(S(=O)(=O)N3CCOCC3)c2cc1C,IC50,Prothrombin,> 50000 nM (not active)
CCCC(=O)n1nc(-c2cccnc2)nc1N,AC50,Cytochrome P450 2C19,31.6 µM (inconclusive)
same,IC50,Prothrombin,986 nM (active)
Cc1cc(OCCCn2ccnc2)cc(C)c1Cl,EC50,[3],5.31 µM (active)
same,EC50,[4],> 60 µM (not active)
same,EC50,[5],852 nM (active)
O=C(NCc1ccccc1)C1=C[C@H](c2ccc3c(c2)OCO3)C[C@H](OCc2ccc(CO)cc2)O1,EC50,[3],4.73 µM (active)
same,EC50,[6],5.31 µM (active)
COc1cc(C=NO)nc(-c2ccccn2)c1,IC50,Nonstructural protein 1,2.51 µM (active)
same,AC50,[7],3.2 µM (active)
CCOC(=O)N(O)c1ccc(C=Cc2ccccc2)cc1,IC50,[1],6.05 µM (active)
C[C@@H]1CCCCO[C@H](CN(C)Cc2ccccc2)[C@@H](C)CN([C@H](C)CO)C(=O)c2cc(NC(=O)c3ccccc3)ccc2O1,AC50,[8],> 70 µM (inactive)
same,AC50,[9],31.2 µM (active)
C[C@H]1CN([C@@H](C)CO)S(=O)(=O)c2ccc(C#Cc3ccncc3)cc2O[C@H]1CN(C)C(=O)C1CCCCC1,AC50,[10],12.9 µM (active)
same,AC50,[11],52.3 µM (active)
same,AC50,Paired box protein Pax-8,2.68 µM (active)
CCOc1cc(/C=N/NC2=NC(=O)C(CC(=O)O)S2)ccc1OCc1ccccc1Cl (stereo not drawn),IC50,Genome polyprotein,51.7 µM (active)
same,IC50,[1],4.28 µM (active)
Cc1cc(C(=O)N/N=C/C=C/c2ccc(Br)cc2)[nH]n1,IC50,[1],7.02 µM (active)
Cc1ccsc1/C=N/n1c(S)nnc1-c1cccnc1,IC50,[12],> 64 µM (inactive)
same,IC50,Large T antigen,30.3 µM (active)
COc1ccc(NC(=O)N2CCC3(CC2)CN(C(=O)C2CCC2)[C@H](CO)c2c3c3ccc(OC)cc3n2C)cc1,AC50,[13],969 nM (active)
same,AC50,[14],96.7 nM (active)
same,AC50,[15],41.7 nM (active)
same,AC50,[16],84.5 nM (active)
C[C@@H]1CN([C@@H](C)CO)S(=O)(=O)c2ccc(C#CC3CCCC3)cc2O[C@H]1CN(C)C(=O)Cc1ccncc1,AC50,[13],1160 nM (active)
same,AC50,[14],722 nM (active)
same,AC50,[15],2980 nM (active)
same,AC50,[16],1720 nM (active)
